The structures appear in SMILES notation.

Assay [1] concerns the target T1, Histone deacetylase 8 (Homo sapiens) (UniProt Q9BY41).
T1 sequence (whole entry): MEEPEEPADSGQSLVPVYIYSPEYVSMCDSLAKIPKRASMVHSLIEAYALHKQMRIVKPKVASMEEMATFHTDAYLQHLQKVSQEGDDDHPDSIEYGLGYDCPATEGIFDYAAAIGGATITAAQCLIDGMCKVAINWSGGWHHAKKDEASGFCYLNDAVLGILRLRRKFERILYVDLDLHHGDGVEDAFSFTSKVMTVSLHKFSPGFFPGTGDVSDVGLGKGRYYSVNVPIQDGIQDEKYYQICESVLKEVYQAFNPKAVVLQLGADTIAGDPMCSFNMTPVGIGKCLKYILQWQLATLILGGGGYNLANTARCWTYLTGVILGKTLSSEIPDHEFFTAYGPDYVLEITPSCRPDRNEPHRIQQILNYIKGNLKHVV
As to the kind of experiment: Inhibition of HDAC8 (unknown origin) assessed as residual activity at 4.57 x 10^-9M (reference value: 100%). Particulars: dose 4.57 10^-9M.

Assay [2] deals with Histone deacetylase 5 (Homo sapiens) (UniProt Q9UQL6). As to the kind of experiment: Inhibition of HDAC5 (unknown origin) assessed as residual activity at 5.08 x 10^-10M (reference value: 100%). The settings on record: dose 5.08 10^-10M.
Another assay deals with Histone deacetylase 3 (Homo sapiens, UniProt O15379). As to the kind of experiment: Inhibition of HDAC3 (unknown origin) using p53 residues 379 to 382 [RHKK(Ac)] as fluorogenic substrate assessed as residual activity at 1.11 x 10^-6M (reference value: 103.08%). Particulars: dose 1.1 10^-6M.
For assay [3], the target named is Histone deacetylase 9 (Homo sapiens) (UniProt Q9UKV0). As to the kind of experiment: Inhibition of HDAC9 (unknown origin) assessed as residual activity at 1.1 x 10^-6M (reference value: 97.55%). The settings on record: dose 1.1 10^-6M.
The target in assay [4] is T2, Histone deacetylase 7 (Homo sapiens) (UniProt Q8WUI4).
T2 sequence (whole entry): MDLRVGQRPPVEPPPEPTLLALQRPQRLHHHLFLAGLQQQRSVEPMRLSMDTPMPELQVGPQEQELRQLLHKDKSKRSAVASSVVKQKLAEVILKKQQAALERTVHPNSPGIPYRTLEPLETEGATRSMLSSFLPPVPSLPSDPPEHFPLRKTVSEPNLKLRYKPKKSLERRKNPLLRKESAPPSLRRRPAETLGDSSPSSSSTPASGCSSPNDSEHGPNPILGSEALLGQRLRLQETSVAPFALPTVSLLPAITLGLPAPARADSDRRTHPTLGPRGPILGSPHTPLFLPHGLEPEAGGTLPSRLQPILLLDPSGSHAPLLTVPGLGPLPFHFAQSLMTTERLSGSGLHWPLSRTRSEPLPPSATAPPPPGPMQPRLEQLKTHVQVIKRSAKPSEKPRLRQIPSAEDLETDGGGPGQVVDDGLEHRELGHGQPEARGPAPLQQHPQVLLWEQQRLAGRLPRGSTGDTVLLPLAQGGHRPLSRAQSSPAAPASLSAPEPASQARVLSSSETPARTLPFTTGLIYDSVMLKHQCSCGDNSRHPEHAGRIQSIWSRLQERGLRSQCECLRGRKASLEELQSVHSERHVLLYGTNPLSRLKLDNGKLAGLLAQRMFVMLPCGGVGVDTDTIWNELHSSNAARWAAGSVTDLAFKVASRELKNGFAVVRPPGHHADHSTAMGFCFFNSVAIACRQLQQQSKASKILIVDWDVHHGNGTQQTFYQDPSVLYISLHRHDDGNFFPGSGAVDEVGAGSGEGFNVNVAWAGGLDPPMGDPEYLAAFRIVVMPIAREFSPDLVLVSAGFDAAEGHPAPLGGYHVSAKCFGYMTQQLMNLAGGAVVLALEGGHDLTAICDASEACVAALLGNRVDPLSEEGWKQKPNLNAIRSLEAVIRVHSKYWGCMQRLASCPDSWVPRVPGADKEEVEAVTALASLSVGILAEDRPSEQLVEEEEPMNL
As to the kind of experiment: Inhibition of HDAC7 (unknown origin) assessed as residual activity at 4.12 x 10^-8M (reference value: 102.66%). The settings on record: dose 4.12 10^-8M.

The target in assay [5] is T3, Protein deacetylase HDAC6 (Homo sapiens) (UniProt Q9UBN7).
T3 sequence (whole entry): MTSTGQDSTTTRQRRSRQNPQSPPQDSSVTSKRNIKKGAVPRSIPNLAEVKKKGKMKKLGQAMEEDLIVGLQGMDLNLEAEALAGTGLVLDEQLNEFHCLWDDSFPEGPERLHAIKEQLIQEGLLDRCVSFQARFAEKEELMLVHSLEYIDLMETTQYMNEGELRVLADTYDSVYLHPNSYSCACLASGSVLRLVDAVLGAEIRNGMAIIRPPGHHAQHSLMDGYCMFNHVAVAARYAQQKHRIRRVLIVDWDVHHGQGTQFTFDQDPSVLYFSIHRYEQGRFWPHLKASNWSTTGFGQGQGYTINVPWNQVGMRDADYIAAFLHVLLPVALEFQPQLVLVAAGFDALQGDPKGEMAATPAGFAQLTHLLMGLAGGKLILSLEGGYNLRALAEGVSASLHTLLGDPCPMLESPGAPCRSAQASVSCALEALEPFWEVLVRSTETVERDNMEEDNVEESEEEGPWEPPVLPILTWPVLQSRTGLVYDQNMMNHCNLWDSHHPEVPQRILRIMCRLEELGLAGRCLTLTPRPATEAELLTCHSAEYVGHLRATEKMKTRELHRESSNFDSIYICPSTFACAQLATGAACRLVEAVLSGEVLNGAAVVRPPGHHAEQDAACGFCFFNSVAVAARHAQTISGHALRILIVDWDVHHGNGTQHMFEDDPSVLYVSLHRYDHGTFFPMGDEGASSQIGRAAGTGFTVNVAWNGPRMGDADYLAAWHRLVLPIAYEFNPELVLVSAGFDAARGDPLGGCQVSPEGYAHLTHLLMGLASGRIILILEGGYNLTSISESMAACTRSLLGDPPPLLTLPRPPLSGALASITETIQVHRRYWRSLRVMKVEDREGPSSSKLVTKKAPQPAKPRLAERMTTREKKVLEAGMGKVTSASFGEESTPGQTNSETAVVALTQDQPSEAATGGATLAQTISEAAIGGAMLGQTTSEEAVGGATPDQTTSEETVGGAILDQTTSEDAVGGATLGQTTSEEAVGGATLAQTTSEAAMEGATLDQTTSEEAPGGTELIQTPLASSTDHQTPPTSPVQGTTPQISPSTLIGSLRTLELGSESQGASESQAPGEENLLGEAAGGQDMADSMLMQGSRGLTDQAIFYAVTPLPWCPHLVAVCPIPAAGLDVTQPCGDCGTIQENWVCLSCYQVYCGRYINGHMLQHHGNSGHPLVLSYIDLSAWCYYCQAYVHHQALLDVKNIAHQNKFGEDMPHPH
As to the kind of experiment: Inhibition of HDAC6 (unknown origin) using p53 residues 379 to 382 [RHKK(Ac)] as fluorogenic substrate assessed as residual activity at 1.37 x 10^-8M (reference value: 101.06%). Particulars: dose 1.37 10^-8M.

In assay [6] the target is T2, Histone deacetylase 7 (Homo sapiens). As to the kind of experiment: Inhibition of HDAC7 (unknown origin) assessed as residual activity at 1 x 10^-5M (reference value: 102.66%).

Chain of Histone deacetylase 5 (Homo sapiens) (Q9UQL6 whole entry, the tested form may be a part): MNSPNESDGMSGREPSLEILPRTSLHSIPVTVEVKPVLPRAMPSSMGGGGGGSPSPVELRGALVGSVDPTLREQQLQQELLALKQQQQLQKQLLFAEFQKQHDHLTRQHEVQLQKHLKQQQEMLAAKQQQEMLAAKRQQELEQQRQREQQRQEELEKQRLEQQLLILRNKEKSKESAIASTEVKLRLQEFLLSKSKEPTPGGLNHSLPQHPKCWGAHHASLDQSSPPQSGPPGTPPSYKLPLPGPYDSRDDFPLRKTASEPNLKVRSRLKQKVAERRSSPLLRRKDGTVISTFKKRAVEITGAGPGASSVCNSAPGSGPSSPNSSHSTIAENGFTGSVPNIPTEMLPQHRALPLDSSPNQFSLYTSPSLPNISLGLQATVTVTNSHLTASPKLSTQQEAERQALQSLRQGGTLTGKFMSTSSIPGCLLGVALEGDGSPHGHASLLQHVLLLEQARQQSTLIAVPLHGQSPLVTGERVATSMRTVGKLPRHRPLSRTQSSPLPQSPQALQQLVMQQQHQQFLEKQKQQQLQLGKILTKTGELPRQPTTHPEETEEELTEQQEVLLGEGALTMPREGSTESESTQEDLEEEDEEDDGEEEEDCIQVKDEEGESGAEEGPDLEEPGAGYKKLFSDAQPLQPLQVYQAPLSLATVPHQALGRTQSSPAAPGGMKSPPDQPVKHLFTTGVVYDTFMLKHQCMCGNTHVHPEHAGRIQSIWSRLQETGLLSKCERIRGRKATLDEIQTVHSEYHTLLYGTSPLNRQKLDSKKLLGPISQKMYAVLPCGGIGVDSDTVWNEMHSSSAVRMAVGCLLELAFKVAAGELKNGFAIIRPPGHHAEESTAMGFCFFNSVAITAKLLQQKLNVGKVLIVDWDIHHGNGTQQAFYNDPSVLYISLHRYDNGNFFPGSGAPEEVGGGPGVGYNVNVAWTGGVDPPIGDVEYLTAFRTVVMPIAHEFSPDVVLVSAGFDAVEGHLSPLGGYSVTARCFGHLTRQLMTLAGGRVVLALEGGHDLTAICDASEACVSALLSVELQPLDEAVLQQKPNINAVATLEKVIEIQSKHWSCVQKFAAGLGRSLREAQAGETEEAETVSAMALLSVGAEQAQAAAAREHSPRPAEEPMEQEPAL
Chain of Histone deacetylase 9 (Homo sapiens) (Q9UKV0 whole entry): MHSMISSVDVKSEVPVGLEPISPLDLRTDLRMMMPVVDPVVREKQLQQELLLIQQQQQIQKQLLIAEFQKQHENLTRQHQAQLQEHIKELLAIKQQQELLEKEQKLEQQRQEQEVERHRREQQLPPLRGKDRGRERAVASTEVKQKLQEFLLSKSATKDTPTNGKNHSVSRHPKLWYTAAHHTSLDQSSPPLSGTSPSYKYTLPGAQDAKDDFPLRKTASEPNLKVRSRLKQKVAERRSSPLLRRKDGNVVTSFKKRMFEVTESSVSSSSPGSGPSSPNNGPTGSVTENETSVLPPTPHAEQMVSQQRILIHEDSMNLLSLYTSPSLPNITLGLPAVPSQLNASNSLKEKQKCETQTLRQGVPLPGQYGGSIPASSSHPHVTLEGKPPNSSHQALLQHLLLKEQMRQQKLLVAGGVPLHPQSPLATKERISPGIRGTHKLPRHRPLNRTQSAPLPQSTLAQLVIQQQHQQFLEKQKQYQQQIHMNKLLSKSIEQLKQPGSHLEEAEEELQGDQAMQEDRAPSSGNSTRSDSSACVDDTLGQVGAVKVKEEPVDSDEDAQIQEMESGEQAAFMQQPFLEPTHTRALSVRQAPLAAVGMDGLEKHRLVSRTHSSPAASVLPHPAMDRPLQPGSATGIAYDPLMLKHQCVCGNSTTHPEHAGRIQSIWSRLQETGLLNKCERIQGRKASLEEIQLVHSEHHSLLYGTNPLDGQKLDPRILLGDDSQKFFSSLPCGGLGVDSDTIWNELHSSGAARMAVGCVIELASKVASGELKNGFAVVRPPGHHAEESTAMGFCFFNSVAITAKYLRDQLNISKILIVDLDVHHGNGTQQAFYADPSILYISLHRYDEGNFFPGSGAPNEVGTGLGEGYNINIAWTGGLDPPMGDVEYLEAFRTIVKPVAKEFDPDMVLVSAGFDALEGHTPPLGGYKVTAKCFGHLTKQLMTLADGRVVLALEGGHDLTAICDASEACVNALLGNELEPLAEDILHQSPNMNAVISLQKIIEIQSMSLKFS
Chain of Histone deacetylase 3 (O15379 whole entry, the tested form may be a part): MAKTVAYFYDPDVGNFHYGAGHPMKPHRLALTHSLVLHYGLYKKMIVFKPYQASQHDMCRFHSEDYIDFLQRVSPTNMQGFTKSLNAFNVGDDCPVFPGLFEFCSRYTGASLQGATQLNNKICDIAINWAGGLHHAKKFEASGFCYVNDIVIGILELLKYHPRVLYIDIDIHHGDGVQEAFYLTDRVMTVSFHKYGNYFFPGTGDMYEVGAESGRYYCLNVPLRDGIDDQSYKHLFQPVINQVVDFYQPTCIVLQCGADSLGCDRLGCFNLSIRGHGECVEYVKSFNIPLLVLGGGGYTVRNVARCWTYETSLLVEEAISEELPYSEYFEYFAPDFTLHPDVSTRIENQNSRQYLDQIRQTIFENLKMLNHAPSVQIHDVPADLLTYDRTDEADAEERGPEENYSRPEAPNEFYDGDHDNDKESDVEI

In the case of `NC(=O)c1cccc2[nH]c(-c3ccc(NCc4ccc(C(=O)Nc5ccccc5N)cc4)cc3)nc12`, the Activity in assay [1] is 103%; in assay [2] it was 39%; at Histone deacetylase 3 it was 21.7%; in assay [3] it was 93%; in assay [4] it was 87%; in assay [5], 103%. The Activity in assay [6] is 92%.

The record behind these values is ChEMBL document CHEMBL5550160, “Leveraging a rationally designed veliparib-based anilide eliciting anti-leukemic effects for the design of pH-responsive polymer nanoformulation” (Eur J Med Chem, 2024).
